# Experimental data taken from US8758816B2, “Compositions comprising azelastine and methods of use thereof” (priority 2004, dated 2014).
# Test system: patients with seasonal allergic rhinitis (SAR)
# Test: MP 428 study: individual symptom severity scores (runny nose, itchy nose, sneezing, congestion; 0-3 scale)
# Type: in vivo, human
# Details: Intent-to-Treat Population
# Experimental: A two-week, randomized, double-blind study, which evaluated the effects of the co-administration of ASTELIN® (azelastine hydrochloride (HCl)) and FLONASE® (fluticasone propionate) compared to either product alone in patients with seasonal allergic rhinitis (SAR) was conducted during the 2006 Texas mountain cedar season. After a 5-day placebo lead-in period, 151 patients with moderate-to-severe allergic rhinitis symptoms were randomized to either: (1) (49 total patients) ASTELIN® (azelastine hydrochloride (HCl)) plus placebo saline nasal spray 2 sprays per nostril, 15 minutes apart, twice daily (AM & PM); (2) (50 total patients) FLONASE® (fluticasone propionate) plus placebo saline nasal spray, 2 sprays per nostril, 15 minutes apart, once daily (AM) and two sessions of placebo saline nasal spray, 2 sprays per nostril, 15 minutes apart (PM); or (3) (52 total patients) the co-administration of ASTELIN® (azelastine hydrochloride (HCl)) 2 sprays per nostril plus FLONASE® (fluticasone propionate) 2 sprays per nostril (AM), 15 minutes apart, and ASTELIN® (azelastine hydrochloride (HCl)) 2 sprays per nostril plus placebo saline nasal spray, 15 minutes apart, (PM) for a 2-week double-blind treatment period.
# The primary efficacy variable was the change from baseline in the Total Nasal Symptom Score (TNSS), which comprised sneezing, itchy nose, runny nose, and nasal congestion (individual symptoms scores were assigned a value between 0 and 3, where 0=no symptoms and 3=severe symptoms). This study was not statistically designed to assess the differences between ASTELIN® and FLONASE®.
# The results of the clinical trial are summarized and presented in Appendix A hereinbelow and in FIGS. 1-6. […] FIGS. 2-5 show the mean improvement in severity score (0-3 scale) from baseline for the symptoms of runny nose, itchy nose, sneezing and congestion, respectively.
structure (smiles),measurement,setting,value
"CCC(=O)O[C@]1(C(=O)SCF)[C@H](C)C[C@H]2[C@@H]3C[C@H](F)C4=CC(=O)C=C[C@]4(C)[C@@]3(F)[C@@H](O)C[C@@]21C [Fluticasone, fluticasone propionate]","Change from Baseline in AM and PM Combined Nasal Symptom Score: Congestion, LS Mean",Day 2,−0.59
same,"Change from Baseline in AM and PM Combined Nasal Symptom Score: Congestion, Mean",Day 2,−0.65
same,"Change from Baseline in AM and PM Combined Nasal Symptom Score: Congestion, Median",Day 2,−0.30
same,"Change from Baseline in AM and PM Combined Nasal Symptom Score: Itchy Nose, LS Mean",Day 2,−0.61
same,"Change from Baseline in AM and PM Combined Nasal Symptom Score: Itchy Nose, Mean",Day 2,−0.66
same,"Change from Baseline in AM and PM Combined Nasal Symptom Score: Itchy Nose, Median",Day 2,−0.40
same,"Change from Baseline in AM and PM Combined Nasal Symptom Score: Runny Nose, LS Mean",Day 2,−0.86
same,"Change from Baseline in AM and PM Combined Nasal Symptom Score: Runny Nose, Mean",Day 2,−0.90
same,"Change from Baseline in AM and PM Combined Nasal Symptom Score: Runny Nose, Median",Day 2,−1.00
same,"Change from Baseline in AM and PM Combined Nasal Symptom Score: Sneezing, LS Mean",Day 2,−1.06
same,"Change from Baseline in AM and PM Combined Nasal Symptom Score: Sneezing, Mean",Day 2,−1.03
same,"Change from Baseline in AM and PM Combined Nasal Symptom Score: Sneezing, Median",Day 2,−1.00
same,"Percent Change from Baseline in AM and PM Combined Nasal Symptom Score: Congestion, LS Mean",Day 2,−10.84%
same,"Percent Change from Baseline in AM and PM Combined Nasal Symptom Score: Congestion, Mean",Day 2,−11.97%
same,"Percent Change from Baseline in AM and PM Combined Nasal Symptom Score: Congestion, Median",Day 2,−5.66%
same,"Percent Change from Baseline in AM and PM Combined Nasal Symptom Score: Itchy Nose, LS Mean",Day 2,−12.72%
same,"Percent Change from Baseline in AM and PM Combined Nasal Symptom Score: Itchy Nose, Mean",Day 2,−14.27%
same,"Percent Change from Baseline in AM and PM Combined Nasal Symptom Score: Itchy Nose, Median",Day 2,−8.39%
same,"Percent Change from Baseline in AM and PM Combined Nasal Symptom Score: Runny Nose, LS Mean",Day 2,−12.11%
same,"Percent Change from Baseline in AM and PM Combined Nasal Symptom Score: Runny Nose, Mean",Day 2,−12.95%
same,"Percent Change from Baseline in AM and PM Combined Nasal Symptom Score: Runny Nose, Median",Day 2,−16.67%
same,"Percent Change from Baseline in AM and PM Combined Nasal Symptom Score: Sneezing, LS Mean",Day 2,−22.64%
same,"Percent Change from Baseline in AM and PM Combined Nasal Symptom Score: Sneezing, Mean",Day 2,−22.69%
same,"Percent Change from Baseline in AM and PM Combined Nasal Symptom Score: Sneezing, Median",Day 2,−16.67%
same,"Change from Baseline in AM and PM Combined Nasal Symptom Score: Congestion, LS Mean",Day 3,−0.81
same,"Change from Baseline in AM and PM Combined Nasal Symptom Score: Congestion, Mean",Day 3,−0.90
same,"Change from Baseline in AM and PM Combined Nasal Symptom Score: Congestion, Median",Day 3,−0.67
same,"Change from Baseline in AM and PM Combined Nasal Symptom Score: Itchy Nose, LS Mean",Day 3,−0.99
same,"Change from Baseline in AM and PM Combined Nasal Symptom Score: Itchy Nose, Mean",Day 3,−0.97
same,"Change from Baseline in AM and PM Combined Nasal Symptom Score: Itchy Nose, Median",Day 3,−0.67
same,"Change from Baseline in AM and PM Combined Nasal Symptom Score: Runny Nose, LS Mean",Day 3,−0.96
same,"Change from Baseline in AM and PM Combined Nasal Symptom Score: Runny Nose, Mean",Day 3,−1.05
same,"Change from Baseline in AM and PM Combined Nasal Symptom Score: Runny Nose, Median",Day 3,−0.80
same,"Change from Baseline in AM and PM Combined Nasal Symptom Score: Sneezing, LS Mean",Day 3,−1.29
same,"Change from Baseline in AM and PM Combined Nasal Symptom Score: Sneezing, Mean",Day 3,−1.21
same,"Change from Baseline in AM and PM Combined Nasal Symptom Score: Sneezing, Median",Day 3,−1.00
same,"Percent Change from Baseline in AM and PM Combined Nasal Symptom Score: Congestion, LS Mean",Day 3,−15.34%
same,"Percent Change from Baseline in AM and PM Combined Nasal Symptom Score: Congestion, Mean",Day 3,−16.63%
same,"Percent Change from Baseline in AM and PM Combined Nasal Symptom Score: Congestion, Median",Day 3,−11.76%
same,"Percent Change from Baseline in AM and PM Combined Nasal Symptom Score: Itchy Nose, LS Mean",Day 3,−22.88%
same,"Percent Change from Baseline in AM and PM Combined Nasal Symptom Score: Itchy Nose, Mean",Day 3,−22.41%
same,"Percent Change from Baseline in AM and PM Combined Nasal Symptom Score: Itchy Nose, Median",Day 3,−15.32%
same,"Percent Change from Baseline in AM and PM Combined Nasal Symptom Score: Runny Nose, LS Mean",Day 3,−17.15%
same,"Percent Change from Baseline in AM and PM Combined Nasal Symptom Score: Runny Nose, Mean",Day 3,−18.81%
same,"Percent Change from Baseline in AM and PM Combined Nasal Symptom Score: Runny Nose, Median",Day 3,−13.79%
same,"Percent Change from Baseline in AM and PM Combined Nasal Symptom Score: Sneezing, LS Mean",Day 3,−29.62%
same,"Percent Change from Baseline in AM and PM Combined Nasal Symptom Score: Sneezing, Mean",Day 3,−28.44%
same,"Percent Change from Baseline in AM and PM Combined Nasal Symptom Score: Sneezing, Median",Day 3,−30.09%
same,"Change from Baseline in AM and PM Combined Nasal Symptom Score: Congestion, LS Mean",Day 4,−1.00
same,"Change from Baseline in AM and PM Combined Nasal Symptom Score: Congestion, Mean",Day 4,−1.06
same,"Change from Baseline in AM and PM Combined Nasal Symptom Score: Congestion, Median",Day 4,−1.00
same,"Change from Baseline in AM and PM Combined Nasal Symptom Score: Itchy Nose, LS Mean",Day 4,−0.98
same,"Change from Baseline in AM and PM Combined Nasal Symptom Score: Itchy Nose, Mean",Day 4,−0.97
same,"Change from Baseline in AM and PM Combined Nasal Symptom Score: Itchy Nose, Median",Day 4,−0.90
same,"Change from Baseline in AM and PM Combined Nasal Symptom Score: Runny Nose, LS Mean",Day 4,−1.12
same,"Change from Baseline in AM and PM Combined Nasal Symptom Score: Runny Nose, Mean",Day 4,−1.17
same,"Change from Baseline in AM and PM Combined Nasal Symptom Score: Runny Nose, Median",Day 4,−1.15
same,"Change from Baseline in AM and PM Combined Nasal Symptom Score: Sneezing, LS Mean",Day 4,−1.42
same,"Change from Baseline in AM and PM Combined Nasal Symptom Score: Sneezing, Mean",Day 4,−1.33
same,"Change from Baseline in AM and PM Combined Nasal Symptom Score: Sneezing, Median",Day 4,−1.10
same,"Percent Change from Baseline in AM and PM Combined Nasal Symptom Score: Congestion, LS Mean",Day 4,−18.75%
same,"Percent Change from Baseline in AM and PM Combined Nasal Symptom Score: Congestion, Mean",Day 4,−19.51%
same,"Percent Change from Baseline in AM and PM Combined Nasal Symptom Score: Congestion, Median",Day 4,−16.67%
same,"Percent Change from Baseline in AM and PM Combined Nasal Symptom Score: Itchy Nose, LS Mean",Day 4,−20.59%
same,"Percent Change from Baseline in AM and PM Combined Nasal Symptom Score: Itchy Nose, Mean",Day 4,−20.31%
same,"Percent Change from Baseline in AM and PM Combined Nasal Symptom Score: Itchy Nose, Median",Day 4,−16.67%
same,"Percent Change from Baseline in AM and PM Combined Nasal Symptom Score: Runny Nose, LS Mean",Day 4,−17.17%
same,"Percent Change from Baseline in AM and PM Combined Nasal Symptom Score: Runny Nose, Mean",Day 4,−18.21%
same,"Percent Change from Baseline in AM and PM Combined Nasal Symptom Score: Runny Nose, Median",Day 4,−22.33%
same,"Percent Change from Baseline in AM and PM Combined Nasal Symptom Score: Sneezing, LS Mean",Day 4,−31.80%
same,"Percent Change from Baseline in AM and PM Combined Nasal Symptom Score: Sneezing, Mean",Day 4,−30.67%
same,"Percent Change from Baseline in AM and PM Combined Nasal Symptom Score: Sneezing, Median",Day 4,−27.36%
same,"Change from Baseline in AM and PM Combined Nasal Symptom Score: Congestion, LS Mean",Day 5,−1.00
same,"Change from Baseline in AM and PM Combined Nasal Symptom Score: Congestion, Mean",Day 5,−1.06
same,"Change from Baseline in AM and PM Combined Nasal Symptom Score: Congestion, Median",Day 5,−0.83
same,"Change from Baseline in AM and PM Combined Nasal Symptom Score: Itchy Nose, LS Mean",Day 5,−1.16
same,"Change from Baseline in AM and PM Combined Nasal Symptom Score: Itchy Nose, Mean",Day 5,−1.15
same,"Change from Baseline in AM and PM Combined Nasal Symptom Score: Itchy Nose, Median",Day 5,−1.00
same,"Change from Baseline in AM and PM Combined Nasal Symptom Score: Runny Nose, LS Mean",Day 5,−1.42
same,"Change from Baseline in AM and PM Combined Nasal Symptom Score: Runny Nose, Mean",Day 5,−1.43
same,"Change from Baseline in AM and PM Combined Nasal Symptom Score: Runny Nose, Median",Day 5,−1.05
same,"Change from Baseline in AM and PM Combined Nasal Symptom Score: Sneezing, LS Mean",Day 5,−1.61
same,"Change from Baseline in AM and PM Combined Nasal Symptom Score: Sneezing, Mean",Day 5,−1.52
same,"Change from Baseline in AM and PM Combined Nasal Symptom Score: Sneezing, Median",Day 5,−1.33
